Active and inactive are the calls of the source. The rule behind the calls is not given here.
Legend:
in vitro [1] = details: human, liver S9 fractions
[2] = molecular target: T1, Platelet-activating factor acetylhydrolase (Mus musculus) (UniProt Q60963); details: Plasma, at 1 µM
T1 sequence (whole entry): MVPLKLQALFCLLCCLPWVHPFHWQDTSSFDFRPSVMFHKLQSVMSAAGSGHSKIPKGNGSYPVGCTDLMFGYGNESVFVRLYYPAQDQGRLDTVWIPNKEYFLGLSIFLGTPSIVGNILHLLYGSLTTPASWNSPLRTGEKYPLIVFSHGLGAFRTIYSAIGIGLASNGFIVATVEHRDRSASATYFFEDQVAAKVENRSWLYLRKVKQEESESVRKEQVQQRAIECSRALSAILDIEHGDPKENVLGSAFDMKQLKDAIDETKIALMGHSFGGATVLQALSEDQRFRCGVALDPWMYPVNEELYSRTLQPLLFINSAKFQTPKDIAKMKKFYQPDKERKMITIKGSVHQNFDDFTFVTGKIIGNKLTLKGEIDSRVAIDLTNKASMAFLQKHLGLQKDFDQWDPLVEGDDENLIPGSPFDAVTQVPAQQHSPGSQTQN
Description: Inhibition of Lp-PLA2 in mouse plasma at 1 uM using 2-thio-PAF substrate after 10 mins

Rattus norvegicus [3] = organism: Rattus norvegicus; details: Sprague-Dawley, Plasma, 10 nM
Description: Inhibition of Lp-PLA2 in Sprague-Dawley rat plasma at 10 nM using 2-thio-PAF substrate after 10 mins

Rattus norvegicus [4] = organism: Rattus norvegicus; details: Sprague-Dawley, 25 mg/kg
Description: In vivo inhibition of Lp-PLA2 in Sprague-Dawley rat at 25 mg/kg, po measured over 24 hrs

[5] = molecular target: T1, Platelet-activating factor acetylhydrolase (Mus musculus); details: Plasma, at 100 nM
in vivo [6] = details: Sprague-Dawley, rat, po, 25 mg/kg
Description: Terminal half life in Sprague-Dawley rat at 25 mg/kg, po after 48 hrs by LC-MS method

in vivo [7] = details: Sprague-Dawley, rat, po, 25 mg/kg; remark: listed apart in the source
Description: Cmax in Sprague-Dawley rat at 25 mg/kg, po after 48 hrs by LC-MS method

Rattus norvegicus [8] = assay: In vivo inhibition of Lp-PLA2 in Sprague-Dawley rat at 25 mg/kg, po after 5 hrs; type: functional
in vitro [9] = details: Wistar, rat, liver S9 fractions
in vivo [10] = details: Sprague-Dawley, rat, po, 25 mg/kg; remark: listed apart in the source
Description: AUC (0 to infinity) in Sprague-Dawley rat at 25 mg/kg, po after 48 hrs by LC-MS method

in vitro [11] = details: Wistar, rat, liver S9 fractions; remark: listed apart in the source
in vitro [12] = details: human, liver S9 fractions; remark: listed apart in the source
[13] = Cmax in Sprague-Dawley rat at 50 mg/kg, po after 48 hrs by LC-MS method; type: ADME, organism-based; design: dose 50 mg/kg, route oral; details: in vivo
[14] = AUC (0 to infinity) in Sprague-Dawley rat at 50 mg/kg, po after 48 hrs by LC-MS method; type: ADME, organism-based; design: dose 50 mg/kg, route oral, time infinity; details: in vivo
[15] = Terminal half life in Sprague-Dawley rat at 50 mg/kg, po after 48 hrs by LC-MS method; type: ADME, organism-based; details: in vivo, read-out: beta t1/2 (converted)

## Cn1cc(-c2cnc3nc(OCc4ccc(Oc5ccc(Cl)c(C(F)(F)F)c5)cc4)ccn23)cn1
In vitro [1]
  half-life at 0.1 µM: 3 h
[2]
  inhibition: 28%
Rattus norvegicus [3]
  inhibition: 13%

## FC(F)(F)c1cc(Oc2ccc(COc3ccn4c(-c5cncnc5)cnc4n3)cc2)ccc1Cl
In vitro [1]
  half-life at 0.1 µM: 1.93 h
[2]
  inhibition: 56%
Rattus norvegicus [3]
  inhibition: 10%
Rattus norvegicus [4]
  inhibition: Active
[5]
  inhibition: 10%
In vivo [6]
  half-life at 48 h: 9.44 h
In vivo [7]
  Cmax at 48 h: 3520 ng/mL
Rattus norvegicus [8]
  inhibition in vivo at 25 mg/kg: 75%
In vitro [9]
  half-life at 0.1 µM: 5.8 h
In vivo [10]
  AUC(0-inf) at 48 h: 88000 ng·h/mL

## Fc1cc(COc2ccn3c(-c4cncnc4)cnc3n2)ccc1Oc1ccc(Cl)c(C(F)(F)F)c1
In vitro [1]
  half-life at 0.1 µM: 5.52 h
[2]
  inhibition: 13%
Rattus norvegicus [3]
  inhibition: 11%
Rattus norvegicus [4]
  inhibition: Active
In vivo [6]
  half-life at 48 h: 13.3 h
In vivo [7]
  Cmax at 48 h: 2600 ng/mL
Rattus norvegicus [8]
  inhibition in vivo at 25 mg/kg: 75%
In vitro [9]
  half-life at 0.1 µM: 2.82 h
In vivo [10]
  AUC(0-inf) at 48 h: 78100 ng·h/mL

## Fc1cc(COc2ccn3c(-c4cncnc4)cnc3n2)cc(F)c1Oc1ccc(Cl)c(C(F)(F)F)c1
In vitro [1]
  half-life at 0.1 µM: 3.53 h
[2]
  inhibition: 8%
In vitro [9]
  half-life at 0.1 µM: 3.27 h

## FC(F)(F)c1cc(Oc2ccc(CCOc3ccn4c(-c5cncnc5)cnc4n3)cc2)ccc1Cl
In vitro [1]
  half-life at 0.1 µM: 0.7 h
[2]
  inhibition: 53%
In vitro [11]
  CLint scaled at 0.1 µM: 34.3 mL/min/kg
[5]
  inhibition: 2%
In vitro [9]
  half-life at 0.1 µM: 1.83 h
In vitro [12]
  CLint scaled at 0.1 µM: 55.1 mL/min/kg

## CCN(CC)CCN(Cc1ccc(-c2ccc(C(F)(F)F)cc2)cc1)C(=O)Cn1c(SCc2ccc(F)cc2)nc(=O)c2c1CCC2 [DARAPLADIB]
[2]
  inhibition: 99%
[13]
  Cmax: 150 ng/mL
[14]
  AUC(0-inf): 2110 ng·h/mL
[5]
  inhibition: 96%
[15]
  half-life: 11.5 h

## N#Cc1cc(COc2ccn3c(-c4cncnc4)cnc3n2)ccc1Oc1ccc(Cl)c(C(F)(F)F)c1
In vitro [1]
  half-life at 0.1 µM: 1.77 h
[2]
  inhibition: 0%
Rattus norvegicus [3]
  inhibition: 14%
In vivo [6]
  half-life at 48 h: 3.24 h
In vivo [7]
  Cmax at 48 h: 1400 ng/mL
In vitro [9]
  half-life at 0.1 µM: 0.667 h
In vivo [10]
  AUC(0-inf) at 48 h: 16100 ng·h/mL

Reference: ChEMBL document CHEMBL3632460, “Discovery of a Novel Series of Imidazo[1,2-a]pyrimidine Derivatives as Potent and Orally Bioavailable Lipoprotein-Associated Phospholipase A2 Inhibitors” (J Med Chem, 2015)
